Data: the supplement of paper PMC10307832

Assays:
Test in all cases: relative viability (nuclei count vs DMSO), 5 days (fraction); higher = more cells survive
[1] = compound: CN(C)CC1=CC(=CC=C1)N=C(C2=CC=CC=C2)C3=C(NC4=C3C=CC(=C4)C(=O)N(C)C)O + Nc1ncn([C@H]2C[C@H](O)[C@@H](CO)O2)c(=O)n1 [Decitabine] (partner 2 µM)
Procedure, shortened: (§1)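 For relative viability, nuclei counts in treated wells were divided by those in vehicle wells. Lung cancer cell lines had been pin-tool dosed in 1536-well plates the day after seeding and cultured for 5 days, then fixed and stained in one step (final 0.05% Triton X-100, 1% formaldehyde, 1 ug/ml Hoechst) and imaged at 4×. Doses were one drug alone or a fixed anchor-drug dose plus five library-drug doses (not always all listed) in √10 steps, and values are duplicate-plate medians.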

[2] = compound: CN(C)CC1=CC(=CC=C1)N=C(C2=CC=CC=C2)C3=C(NC4=C3C=CC(=C4)C(=O)N(C)C)O + Cc1nc(NC(=O)N2CCC[C@H]2C(N)=O)sc1-c1ccnc(C(C)(C)C(F)(F)F)c1 [Alpelisib] (partner 2 µM)
Procedure, shortened: as §1

[3] = compound: CN(C)CC1=CC(=CC=C1)N=C(C2=CC=CC=C2)C3=C(NC4=C3C=CC(=C4)C(=O)N(C)C)O + C[C@]1(O)C[C@@H](c2nc(-c3ccc4ccc(-c5ccccc5)nc4c3)c3c(N)nccn32)C1 [Linsitinib] (partner 1 µM)
Procedure, shortened: as §1

[4] = compound: CN(C)CC1=CC(=CC=C1)N=C(C2=CC=CC=C2)C3=C(NC4=C3C=CC(=C4)C(=O)N(C)C)O + CS(=O)(=O)N1CCN(Cc2cc3nc(-c4cccc5[nH]ncc45)nc(N4CCOCC4)c3s2)CC1 [Pictilisib] (partner 1 µM)
Procedure, shortened: as §1

Row | Cell Line | relative viability ([1]; first compound 0.08 µM) | relative viability ([1]; first compound 0.253 µM) | relative viability ([1]; first compound 2.53 µM) | relative viability ([1]; first compound 8 µM) | relative viability ([2]; first compound 0.08 µM) | relative viability ([2]; first compound 0.253 µM) | relative viability ([2]; first compound 0.8 µM) | relative viability ([2]; first compound 2.53 µM) | relative viability ([2]; first compound 8 µM) | relative viability ([3]; first compound 0.08 µM) | relative viability ([3]; first compound 0.253 µM) | relative viability ([3]; first compound 0.8 µM) | relative viability ([3]; first compound 2.53 µM) | relative viability ([3]; first compound 8 µM) | relative viability ([4]; first compound 0.08 µM) | relative viability ([4]; first compound 0.253 µM) | relative viability ([4]; first compound 0.8 µM) | relative viability ([4]; first compound 2.53 µM) | relative viability ([4]; first compound 8 µM) | relative viability ([1]; first compound 0.8 µM)
1 | H3255 | 0.599 | 0.605 | 0.586 | 0.593 | 0.781 | 0.754 | 0.635 | 0.635 | 0.84 | 0.881 | 0.959 | 0.924 | 0.954 | 1.03 | 0.548 | 0.493 | 0.386 | 0.455 | 0.475 | 
2 | LOU-NH91 | 0.781 | 0.822 | 0.803 | 0.818 | 0.743 | 0.72 | 0.577 | 0.718 | 0.696 | 0.975 | 0.946 | 0.68 | 0.925 | 0.952 | 0.532 | 0.512 | 0.481 | 0.511 | 0.512 | 0.757
3 | NCI-H322M | 0.598 | 0.719 | 0.652 | 0.567 | 0.768 | 0.714 | 0.695 | 0.797 | 0.708 | 1.04 | 0.816 | 0.677 | 0.887 | 0.707 | 0.499 | 0.742 | 0.388 | 0.496 | 0.701 | 0.644
4 | HCC-366 | 0.385 | 0.36 | 0.333 | 0.341 | 0.397 | 0.386 | 0.42 | 0.393 | 0.344 | 0.737 | 0.602 | 0.657 | 0.473 | 0.354 | 0.177 | 0.179 | 0.166 | 0.111 | 0.127 | 0.34
5 | SK-LU-1 | 0.624 | 0.653 | 0.578 | 0.677 | 0.883 | 1.01 | 0.992 | 0.87 | 0.597 | 1.05 | 1.2 | 1.27 | 1.17 | 0.77 | 0.575 | 0.548 | 0.566 | 0.538 | 0.477 | 0.646
6 | NCI-H1944 | 0.449 | 0.428 | 0.461 | 0.489 | 0.828 | 0.799 | 0.748 | 0.826 | 0.783 | 1.18 | 1.18 | 1.01 | 1.17 | 1.08 | 0.36 | 0.343 | 0.318 | 0.367 | 0.322 | 0.382
7 | HCC-15 | 0.707 | 0.636 | 0.63 | 0.617 | 0.947 | 0.802 | 0.927 | 0.937 | 0.954 | 0.869 | 0.849 | 0.976 | 0.974 | 0.805 | 0.739 | 0.768 | 0.877 | 0.819 | 0.774 | 0.784
8 | NCI-H1651 | 0.665 | 0.622 | 0.423 | 0.643 | 1.05 | 0.985 | 1.03 | 0.807 | 0.826 | 0.88 | 1.2 | 0.923 | 0.789 | 0.801 | 0.685 | 0.647 | 0.636 | 0.474 | 0.608 | 0.616
9 | NCI-H23 |  | 0.332 | 0.343 | 0.346 | 0.705 | 0.607 | 0.754 | 0.6 | 0.573 | 0.628 | 0.73 | 0.598 | 0.554 | 0.531 | 0.45 | 0.42 | 0.565 | 0.512 | 0.475 | 0.303
10 | NCI-H1355 | 0.376 | 0.359 | 0.342 | 0.365 | 0.802 | 0.724 | 0.681 | 0.838 | 0.849 | 0.849 | 0.885 | 0.656 | 0.774 | 0.762 | 0.495 | 0.507 | 0.329 | 0.402 | 0.341 | 0.331
11 | NCI-H596 | 0.919 | 1.05 | 1.03 | 0.979 | 0.504 | 0.491 | 0.459 | 0.536 | 0.447 | 1.11 | 1.07 | 1.06 | 1 | 1.11 | 0.383 | 0.432 | 0.384 | 0.374 | 0.429 | 0.967
12 | NCI-H1395 | 0.752 | 0.757 | 0.727 | 0.758 | 1.04 | 0.948 | 1.1 | 0.87 | 0.964 | 1.08 | 0.838 | 1.08 | 0.788 | 0.995 | 0.649 | 0.619 | 0.651 | 0.489 | 0.579 | 0.759
13 | NCI-H2085 | 0.521 | 0.571 | 0.547 | 0.646 | 1.03 | 0.973 | 1.05 | 0.949 | 1.06 | 0.897 | 0.844 | 0.875 | 0.92 | 0.916 | 0.386 | 0.479 | 0.414 | 0.448 | 0.493 | 0.622
